Data on 24 molecules can be found in the NIST ThermoML archive (doi:10.1021/je800355e).

This series in a line: activity coefficient (dimensionless); of the first substance listed, at infinite dilution; xn = mol fraction of the nth substance listed. Conditions: 101 kPa, Liquid, x1 = 0.

Values joined by “and” are separate entries in the source; they are usually repeats but may differ in a detail not shown here. Identical values can stand only once. Numbers after ± are expanded uncertainties.

With `CC(C)CO` [2-methyl-1-propanol] + CCCCCC[n+]1ccn(C)c1.O=S(=O)([N-]S(=O)(=O)C(F)(F)F)C(F)(F)F, the activity coefficient by setting is: (293.15 K, Chromatography) 2.39 and 2.44; (313.15 K, Chromatography) 1.88 and 1.87; (333.15 K, Chromatography) 1.49 and 1.52; (353.15 K, Chromatography) 1.3 ± 0.1.

Take `CC(C)CO` [2-methyl-1-propanol] + CCCCn1cc[n+](C)c1.COS(=O)(=O)[O-]: the activity coefficient turned out to be 1.44 ± 0.12 (298.15 K, Chromatography); 1.29 ± 0.11 (313.15 K, Chromatography); 1.28 ± 0.1 (333.15 K, Chromatography); 1.12 ± 0.09 (353.15 K, Chromatography).

In the case of `CC(C)CO` [2-methyl-1-propanol] + CCCCn1cc[n+](C)c1.F[P-](F)(F)(F)(F)F, the activity coefficient is 8.39 ± 0.57 (293.15 K, Chromatography); 5.74 ± 0.39 (313.15 K, Chromatography); 4.23 ± 0.29 (333.15 K, Chromatography); 3.23 ± 0.22 (353.15 K, Chromatography).

Take `CC(C)(C)O` [2-methylpropan-2-ol] + CCCCCC[n+]1ccn(C)c1.O=S(=O)([N-]S(=O)(=O)C(F)(F)F)C(F)(F)F: the activity coefficient reads like this: (293.15 K, Chromatography) 1.68 and 1.66; (313.15 K, Chromatography) 1.4 and 1.35; (333.15 K, Chromatography) 1.15 and 1.16; (353.15 K, Chromatography) 1.04 and 1.03.

For `CC(C)(C)O` [2-methylpropan-2-ol] + CCCCn1cc[n+](C)c1.COS(=O)(=O)[O-], the activity coefficient runs as follows: (298.15 K, Chromatography) 1.38 ± 0.11; (313.15 K, Chromatography) 1.27 ± 0.1; (333.15 K, Chromatography) 1.19 ± 0.1; (353.15 K, Chromatography) 1.22 ± 0.1.

Regarding `CC(C)(C)O` [2-methylpropan-2-ol] + CCCCn1cc[n+](C)c1.F[P-](F)(F)(F)(F)F, the activity coefficient is, setting by setting: (293.15 K, Chromatography) 4.83 ± 0.33; (313.15 K, Chromatography) 3.68 ± 0.25; (333.15 K, Chromatography) 2.97 ± 0.2; (353.15 K, Chromatography) 2.45 ± 0.17.

As to `CCCCO` [butan-1-ol] + CCCCCC[n+]1ccn(C)c1.O=S(=O)([N-]S(=O)(=O)C(F)(F)F)C(F)(F)F, the activity coefficient reads like this: (293.15 K, Chromatography) 2.5 ± 0.19; (313.15 K, Chromatography) 2.02 ± 0.16; (333.15 K, Chromatography) 1.63 ± 0.12; (353.15 K, Chromatography) 1.33 ± 0.1.

For `CCCCO` [butan-1-ol] + CCCCn1cc[n+](C)c1.COS(=O)(=O)[O-], the activity coefficient amounted to 1.68 ± 0.14 (298.15 K), 1.44 ± 0.11 (313.15 K), 1.37 ± 0.1 (333.15 K) and 1.21 ± 0.08 (353.15 K).

Regarding `CCCCO` [butan-1-ol] + CCCCn1cc[n+](C)c1.F[P-](F)(F)(F)(F)F, the activity coefficient runs as follows: (293.15 K, Chromatography) 8.17 ± 0.56; (313.15 K, Chromatography) 5.9 ± 0.4; (333.15 K, Chromatography) 4.49 ± 0.31; (353.15 K, Chromatography) 3.43 ± 0.23.

`CCC(C)O` (stereo unspecified) [butan-2-ol] + CCCCCC[n+]1ccn(C)c1.O=S(=O)([N-]S(=O)(=O)C(F)(F)F)C(F)(F)F: the activity coefficient (293.15 K, Chromatography) is 2.03 ± 0.16; the activity coefficient (313.15 K, Chromatography) is 1.67 and 1.65; the activity coefficient (333.15 K, Chromatography) is 1.37 and 1.38; the activity coefficient (353.15 K, Chromatography) was 1.2 and 1.21.

In the case of `CCC(C)O` (stereo unspecified) [butan-2-ol] + CCCCn1cc[n+](C)c1.COS(=O)(=O)[O-], the activity coefficient is 1.45 ± 0.12 (298.15 K, Chromatography); 1.31 ± 0.11 (313.15 K, Chromatography); 1.27 ± 0.1 (333.15 K, Chromatography); 1.21 ± 0.1 (353.15 K, Chromatography).

Take `CCC(C)O` (stereo unspecified) [butan-2-ol] + CCCCn1cc[n+](C)c1.F[P-](F)(F)(F)(F)F: the activity coefficient reads like this: (293.15 K, Chromatography) 6.47 ± 0.44; (313.15 K, Chromatography) 4.8 ± 0.33; (333.15 K, Chromatography) 3.69 ± 0.25; (353.15 K, Chromatography) 2.87 ± 0.2.

`CCO` [ethanol] + CCCCCC[n+]1ccn(C)c1.O=S(=O)([N-]S(=O)(=O)C(F)(F)F)C(F)(F)F: the activity coefficient (293.15 K, Chromatography) is 1.85 and 1.82; the activity coefficient (313.15 K, Chromatography) is 1.49 and 1.47; the activity coefficient (333.15 K, Chromatography) was 1.24 and 1.23; the activity coefficient (353.15 K, Chromatography) is 1.05 and 1.03.

Take `CCO` [ethanol] + CCCCn1cc[n+](C)c1.COS(=O)(=O)[O-]: the activity coefficient is, setting by setting: (298.15 K, Chromatography) 0.64 ± 0.05; (313.15 K, Chromatography) 0.61 ± 0.05; (333.15 K, Chromatography) 0.62 ± 0.05; (353.15 K, Chromatography) 0.59 ± 0.05.

Turning to `CCO` [ethanol] + CCCCn1cc[n+](C)c1.F[P-](F)(F)(F)(F)F, the activity coefficient runs as follows: (293.15 K, Chromatography) 3.81 ± 0.26; (313.15 K, Chromatography) 2.94 ± 0.2; (333.15 K, Chromatography) 2.32 ± 0.16; (353.15 K, Chromatography) 1.85 ± 0.12.

Turning to `CO` [methanol] + CCCCCC[n+]1ccn(C)c1.O=S(=O)([N-]S(=O)(=O)C(F)(F)F)C(F)(F)F, the activity coefficient reads like this: (293.15 K, Chromatography) 1.54 and 1.5; (313.15 K, Chromatography) 1.27 and 1.26; (333.15 K, Chromatography) 1.08 and 1.05; (353.15 K, Chromatography) 0.93 and 0.91.

On to `CO` [methanol] + CCCCn1cc[n+](C)c1.COS(=O)(=O)[O-], for which the activity coefficient by setting is: (298.15 K, Chromatography) 0.39 ± 0.04; (313.15 K, Chromatography) 0.36 ± 0.04; (333.15 K, Chromatography) 0.33 ± 0.04; (353.15 K, Chromatography) 0.38 ± 0.04.

As for `CO` [methanol] + CCCCn1cc[n+](C)c1.F[P-](F)(F)(F)(F)F, the activity coefficient runs as follows: (293.15 K, Chromatography) 2.59 ± 0.18; (313.15 K, Chromatography) 2.06 ± 0.14; (333.15 K, Chromatography) 1.67 ± 0.11; (353.15 K, Chromatography) 1.36 ± 0.09.

Regarding `CCCO` [propan-1-ol] + CCCCCC[n+]1ccn(C)c1.O=S(=O)([N-]S(=O)(=O)C(F)(F)F)C(F)(F)F, the activity coefficient was 2.08 and 2.09 (293.15 K, Chromatography); 1.68 and 1.65 (313.15 K, Chromatography); 1.38 ± 0.1 (333.15 K, Chromatography); 1.19 and 1.18 (353.15 K, Chromatography).

Turning to `CCCO` [propan-1-ol] + CCCCn1cc[n+](C)c1.COS(=O)(=O)[O-], the activity coefficient was 0.96 ± 0.08 (298.15 K, Chromatography); 0.88 ± 0.07 (313.15 K, Chromatography); 0.89 ± 0.07 (333.15 K, Chromatography); 0.82 ± 0.07 (353.15 K, Chromatography).

Consider `CCCO` [propan-1-ol] + CCCCn1cc[n+](C)c1.F[P-](F)(F)(F)(F)F, for which the activity coefficient was 5.53 ± 0.38 (293.15 K, Chromatography); 4.14 ± 0.28 (313.15 K, Chromatography); 3.18 ± 0.22 (333.15 K, Chromatography); 2.45 ± 0.17 (353.15 K, Chromatography).

In the case of `CC(C)O` [propan-2-ol] + CCCCCC[n+]1ccn(C)c1.O=S(=O)([N-]S(=O)(=O)C(F)(F)F)C(F)(F)F, the activity coefficient (293.15 K, Chromatography) turned out to be 1.95 ± 0.15; the activity coefficient (313.15 K, Chromatography) is 1.56 and 1.53; the activity coefficient (333.15 K, Chromatography) is 1.17 and 1.15; the activity coefficient (353.15 K, Chromatography) is 1.08 and 1.02.

Regarding `CC(C)O` [propan-2-ol] + CCCCn1cc[n+](C)c1.COS(=O)(=O)[O-], the activity coefficient (298.15 K, Chromatography) is 1.03 ± 0.08; the activity coefficient (313.15 K, Chromatography) was found to be 0.94 ± 0.08; the activity coefficient (333.15 K, Chromatography) stood at 0.91 ± 0.07; the activity coefficient (353.15 K, Chromatography) turned out to be 0.88 ± 0.07.

Take `CC(C)O` [propan-2-ol] + CCCCn1cc[n+](C)c1.F[P-](F)(F)(F)(F)F: the activity coefficient is, setting by setting: (293.15 K, Chromatography) 4.8 ± 0.33; (313.15 K, Chromatography) 3.64 ± 0.25; (333.15 K, Chromatography) 2.83 ± 0.19; (353.15 K, Chromatography) 2.25 ± 0.15.
